The source of these data is ChEMBL document CHEMBL5360601, “Discovery of Potent, Dual-Inhibitors of Diacylglycerol Kinases Alpha and Zeta Guided by Phenotypic Optimization” (ACS Med Chem Lett, 2023).

Calls of active or inactive are those of the source. The rule behind the calls is not given here.

Series [1] in a line: Metabolic stability in mouse liver microsomes assessed as parent compound remaining. It counts as ADME, Microsome. (Microsomes from liver hold many membrane-bound enzymes, among them those of drug oxidation.)
Series [2] is described as follows: Metabolic stability in human liver microsomes assessed as parent compound remaining. In kind it is ADME, Microsome.
In series [3] the target is T1, Diacylglycerol kinase alpha (Homo sapiens, UniProt P23743). The series is described as follows: Inhibition of human DGK alpha using 1, 2-Dilauroyl-sn-glycerol as substrate by ADP-Glo assay.
Series [4] concerns the target Diacylglycerol kinase beta (Homo sapiens, UniProt Q9Y6T7). Kind of series: Inhibition of human DGK beta using 1, 2-Dilauroyl-sn-glycerol as substrate by ADP-Glo assay. (In general: ADP-Glo first removes unused ATP, then detects ADP through luciferase.)
Series [5] concerns the target Diacylglycerol kinase gamma (Homo sapiens, UniProt P49619). The series is described as follows: Inhibition of human DGK gamma using 1, 2-Dilauroyl-sn-glycerol as substrate by ADP-Glo assay.
The target in series [6] is T2, Diacylglycerol kinase kappa (Homo sapiens, UniProt Q5KSL6).
T2 sequence (Q5KSL6 whole entry): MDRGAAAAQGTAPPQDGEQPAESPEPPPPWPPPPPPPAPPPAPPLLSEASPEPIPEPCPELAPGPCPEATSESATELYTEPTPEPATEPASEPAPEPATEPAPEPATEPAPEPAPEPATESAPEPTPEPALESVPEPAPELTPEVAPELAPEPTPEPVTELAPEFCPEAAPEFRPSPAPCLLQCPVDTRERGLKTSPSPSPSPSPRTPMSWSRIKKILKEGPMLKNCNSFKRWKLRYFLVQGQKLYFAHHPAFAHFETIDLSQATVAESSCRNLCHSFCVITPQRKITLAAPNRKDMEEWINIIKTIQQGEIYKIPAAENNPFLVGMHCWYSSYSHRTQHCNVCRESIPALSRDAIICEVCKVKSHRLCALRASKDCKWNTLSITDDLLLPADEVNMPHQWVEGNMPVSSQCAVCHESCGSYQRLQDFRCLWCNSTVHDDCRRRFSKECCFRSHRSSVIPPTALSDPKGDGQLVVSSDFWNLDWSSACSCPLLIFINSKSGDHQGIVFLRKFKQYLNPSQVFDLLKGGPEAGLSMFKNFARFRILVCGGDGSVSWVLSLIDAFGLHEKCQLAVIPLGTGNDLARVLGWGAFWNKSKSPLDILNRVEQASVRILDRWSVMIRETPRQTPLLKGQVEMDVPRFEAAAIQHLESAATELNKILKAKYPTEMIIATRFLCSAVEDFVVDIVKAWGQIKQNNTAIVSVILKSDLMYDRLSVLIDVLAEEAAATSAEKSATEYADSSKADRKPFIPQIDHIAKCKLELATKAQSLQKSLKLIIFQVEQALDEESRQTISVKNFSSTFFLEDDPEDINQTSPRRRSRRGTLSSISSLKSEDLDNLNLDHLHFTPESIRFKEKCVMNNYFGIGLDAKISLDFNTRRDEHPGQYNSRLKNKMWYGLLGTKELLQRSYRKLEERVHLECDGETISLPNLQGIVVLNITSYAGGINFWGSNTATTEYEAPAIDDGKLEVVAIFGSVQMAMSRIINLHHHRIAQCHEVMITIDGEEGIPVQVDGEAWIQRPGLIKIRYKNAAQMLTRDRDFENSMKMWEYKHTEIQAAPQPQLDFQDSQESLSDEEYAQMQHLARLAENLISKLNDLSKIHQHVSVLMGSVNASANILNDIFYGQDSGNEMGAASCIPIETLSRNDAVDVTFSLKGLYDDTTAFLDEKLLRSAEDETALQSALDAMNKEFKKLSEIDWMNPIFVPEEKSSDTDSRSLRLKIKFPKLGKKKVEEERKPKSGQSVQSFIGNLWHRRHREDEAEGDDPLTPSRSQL
Kind of series: Inhibition of human DGK kappa using 1, 2-Dilauroyl-sn-glycerol as substrate by ADP-Glo kinase assay.

The target in series [7] is Diacylglycerol kinase zeta (Homo sapiens, UniProt Q13574). The series is described as follows: Inhibition of human DGK zeta using 1, 2-Dilauroyl-sn-glycerol as substrate by ADP-Glo kinase assay.
For series [8], the target named is Diacylglycerol kinase iota (Homo sapiens, UniProt O75912). Kind of series: Inhibition of human DGK iota using 1, 2-Dilauroyl-sn-glycerol as substrate by ADP-Glo kinase assay.
In series [9] the test system is Mus musculus. The series is described as follows: Immunostimulatory activity in OT-1 mouse model assessed as increase in activated effector T-cells at 10 mg/kg measured after 24 hrs by flow cytometry analysis. In kind it is functional, organism-based. In general terms: A flow cytometer gives signals particle by particle.
For series [10], the species on record is Mus musculus. The series is described as follows: Immunostimulatory activity in OT-1 mouse model assessed as increase in activated effector T-cells measured after 24 hrs in presence of SIINFEKL antigen by flow cytometry analysis. In kind it is functional, organism-based. The conditions noted are these: dose 1-10 mg/kg.
A short description of series [11]: AUClast in C57BL6 mouse at 1 mg/kg, iv administered as bolus dose measured upto 72 hrs by LC/MS/MS analysis. The conditions noted are these: in vivo. The arrangement: dose 1 mg/kg, time < 72 hrs, route iv. It counts as ADME, organism-based.
Series [12] can be described thus: Half life in C57BL6 mouse at 1 mg/kg, iv administered as bolus dose measured upto 72 hrs by LC/MS/MS analysis. In kind it is ADME, organism-based. The conditions noted are these: in vivo.
Series [13] is described as follows: Clearance in C57BL6 mouse at 1 mg/kg, iv administered as bolus dose measured upto 72 hrs by LC/MS/MS analysis. In kind it is ADME, organism-based. Particulars: in vivo.
Series [14] is described as follows: Volume of distribution at steady state in C57BL6 mouse at 1 mg/kg, iv administered as bolus dose measured upto 72 hrs by LC/MS/MS analysis. It counts as ADME, organism-based. The conditions noted are these: in vivo, read-out: Vdss.
Series [15] in a line: Cmax in C57BL6 mouse at 5 mg/kg, po administered as bolus dose measured upto 72 hrs by LC/MS/MS analysis. Set-up: dose 5 mg/kg, time < 72 hrs, route po. In kind it is ADME, organism-based. Particulars: in vivo.
The nature of series [16]: Tmax in C57BL6 mouse at 5 mg/kg, po administered as bolus dose measured upto 72 hrs by LC/MS/MS analysis. The conditions noted are these: in vivo. In kind it is ADME, organism-based.
Series [17] is described as follows: AUClast in C57BL6 mouse at 5 mg/kg, po administered as bolus dose measured upto 72 hrs by LC/MS/MS analysis. It counts as ADME, organism-based. The arrangement: dose 5 mg/kg, time < 72 hrs, route po. The conditions noted are these: in vivo.
A short description of series [18]: Oral bioavailability in C57BL6 mouse at 5 mg/kg administered as bolus dose measured upto 72 hrs by LC/MS/MS analysis. It counts as ADME, organism-based. Particulars: in vivo.
Series [19] in a line: Inhibition of DGK in human whole blood cell assessed as increase in IFNgamma level incubated for 1 hr followed by anti-human CD3/ antiCD28 mAB stimulation and measure after 24 hrs by AlphaLISA assay. It counts as tissue-based.
Series [20] in a line: Inhibition of DGK in human whole blood cell assessed as increase in pERK level incubated for 1 hr followed by anti-human CD3 stimulation and measure after 15 mins by AlphaLISA assay. In kind it is tissue-based.
Series [21] in a line: Inhibition of DGK in mouse T cell assessed as increase in IFNgamma level incubated for 1 hr by AlphaLISA assay. It counts as cell-based.
Series [22] concerns Raji. Kind of series: IL2 production in PD-L1 positive human Raji cells measured after 24 hrs by Cell titer glo assay.
Series [23] has as its system Raji. The series is described as follows: IL2 production in PD-L1 negative human Raji cells measured after 24 hrs by Cell titer glo assay.
Series [24] can be described thus: Induction of proliferation of human CD8-positive T cell measured after 24 hrs by Cell titer glo assay.
For series [25], the target named is T1, Diacylglycerol kinase alpha. The series is described as follows: Inhibition of DGK alpha (unknown origin).

T1 sequence (P23743 whole entry): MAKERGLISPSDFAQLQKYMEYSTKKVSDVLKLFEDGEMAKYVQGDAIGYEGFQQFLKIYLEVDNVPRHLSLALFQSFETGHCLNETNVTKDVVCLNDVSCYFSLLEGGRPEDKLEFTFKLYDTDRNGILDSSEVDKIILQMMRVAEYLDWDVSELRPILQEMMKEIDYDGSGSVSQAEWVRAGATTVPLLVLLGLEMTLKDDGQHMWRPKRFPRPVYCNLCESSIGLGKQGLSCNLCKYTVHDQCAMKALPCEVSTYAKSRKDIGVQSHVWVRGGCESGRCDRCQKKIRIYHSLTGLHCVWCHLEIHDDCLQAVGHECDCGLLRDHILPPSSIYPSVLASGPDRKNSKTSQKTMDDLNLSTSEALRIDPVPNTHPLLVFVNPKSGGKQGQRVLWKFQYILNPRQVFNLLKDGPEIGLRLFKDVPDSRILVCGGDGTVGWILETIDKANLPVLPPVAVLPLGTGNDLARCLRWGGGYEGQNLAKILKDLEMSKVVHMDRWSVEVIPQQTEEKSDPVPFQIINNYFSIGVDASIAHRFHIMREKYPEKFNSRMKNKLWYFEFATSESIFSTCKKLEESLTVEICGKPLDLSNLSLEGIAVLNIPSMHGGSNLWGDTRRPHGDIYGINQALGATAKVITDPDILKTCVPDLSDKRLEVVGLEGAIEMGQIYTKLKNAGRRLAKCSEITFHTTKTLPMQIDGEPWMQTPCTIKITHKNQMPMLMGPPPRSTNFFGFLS
Sequence of Diacylglycerol kinase iota (O75912 whole entry): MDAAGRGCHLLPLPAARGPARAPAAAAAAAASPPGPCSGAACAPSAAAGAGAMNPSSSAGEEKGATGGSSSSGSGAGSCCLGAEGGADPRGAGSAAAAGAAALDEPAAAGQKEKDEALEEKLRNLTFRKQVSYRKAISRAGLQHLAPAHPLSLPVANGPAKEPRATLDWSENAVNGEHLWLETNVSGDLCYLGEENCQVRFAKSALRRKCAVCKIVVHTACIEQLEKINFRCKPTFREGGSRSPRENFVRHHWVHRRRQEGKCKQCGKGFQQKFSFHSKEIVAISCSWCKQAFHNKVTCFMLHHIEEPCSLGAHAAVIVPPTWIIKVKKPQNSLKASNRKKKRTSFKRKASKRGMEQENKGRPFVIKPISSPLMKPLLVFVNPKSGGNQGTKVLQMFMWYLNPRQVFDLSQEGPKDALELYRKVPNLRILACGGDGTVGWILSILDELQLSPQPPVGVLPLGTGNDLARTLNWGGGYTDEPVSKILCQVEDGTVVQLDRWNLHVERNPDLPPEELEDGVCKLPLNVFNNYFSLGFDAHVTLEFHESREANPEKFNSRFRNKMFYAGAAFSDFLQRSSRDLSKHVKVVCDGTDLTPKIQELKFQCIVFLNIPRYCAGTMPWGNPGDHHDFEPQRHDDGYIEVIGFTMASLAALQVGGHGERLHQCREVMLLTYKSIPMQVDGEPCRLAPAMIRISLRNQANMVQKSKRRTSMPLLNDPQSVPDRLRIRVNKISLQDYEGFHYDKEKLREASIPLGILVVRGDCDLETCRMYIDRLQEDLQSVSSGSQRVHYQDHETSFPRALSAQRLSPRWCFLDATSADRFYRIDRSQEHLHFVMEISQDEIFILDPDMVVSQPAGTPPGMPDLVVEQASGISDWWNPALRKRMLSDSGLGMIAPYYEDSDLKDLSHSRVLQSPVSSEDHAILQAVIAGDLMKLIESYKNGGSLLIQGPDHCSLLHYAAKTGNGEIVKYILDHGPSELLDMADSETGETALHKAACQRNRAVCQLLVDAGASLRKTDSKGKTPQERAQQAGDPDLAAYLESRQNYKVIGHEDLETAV
Sequence of Diacylglycerol kinase zeta (Q13574 whole entry): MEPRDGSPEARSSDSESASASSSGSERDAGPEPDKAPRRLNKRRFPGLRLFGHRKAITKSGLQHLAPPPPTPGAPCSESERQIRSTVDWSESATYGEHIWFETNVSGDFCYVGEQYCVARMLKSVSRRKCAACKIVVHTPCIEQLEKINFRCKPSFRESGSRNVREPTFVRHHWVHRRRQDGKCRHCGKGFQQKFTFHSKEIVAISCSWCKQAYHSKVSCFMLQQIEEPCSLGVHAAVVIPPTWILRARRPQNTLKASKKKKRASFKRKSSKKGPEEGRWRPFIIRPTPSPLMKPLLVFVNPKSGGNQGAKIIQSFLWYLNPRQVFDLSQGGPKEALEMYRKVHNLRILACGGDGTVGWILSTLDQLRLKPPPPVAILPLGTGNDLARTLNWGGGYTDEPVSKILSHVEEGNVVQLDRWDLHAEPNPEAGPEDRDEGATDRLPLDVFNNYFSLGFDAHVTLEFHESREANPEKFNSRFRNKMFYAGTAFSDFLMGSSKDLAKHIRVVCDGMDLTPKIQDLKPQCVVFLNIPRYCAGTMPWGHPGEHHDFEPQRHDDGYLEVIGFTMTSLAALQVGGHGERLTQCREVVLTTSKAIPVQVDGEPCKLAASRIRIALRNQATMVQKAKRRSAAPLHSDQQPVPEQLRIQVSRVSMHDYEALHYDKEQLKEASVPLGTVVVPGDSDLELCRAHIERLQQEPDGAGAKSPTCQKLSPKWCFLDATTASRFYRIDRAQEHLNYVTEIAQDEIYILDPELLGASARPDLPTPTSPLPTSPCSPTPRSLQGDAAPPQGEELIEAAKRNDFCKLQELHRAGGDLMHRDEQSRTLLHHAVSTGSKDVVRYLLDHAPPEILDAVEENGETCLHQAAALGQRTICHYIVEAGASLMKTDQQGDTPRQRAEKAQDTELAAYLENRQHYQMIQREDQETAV
Sequence of Diacylglycerol kinase gamma (P49619 whole entry): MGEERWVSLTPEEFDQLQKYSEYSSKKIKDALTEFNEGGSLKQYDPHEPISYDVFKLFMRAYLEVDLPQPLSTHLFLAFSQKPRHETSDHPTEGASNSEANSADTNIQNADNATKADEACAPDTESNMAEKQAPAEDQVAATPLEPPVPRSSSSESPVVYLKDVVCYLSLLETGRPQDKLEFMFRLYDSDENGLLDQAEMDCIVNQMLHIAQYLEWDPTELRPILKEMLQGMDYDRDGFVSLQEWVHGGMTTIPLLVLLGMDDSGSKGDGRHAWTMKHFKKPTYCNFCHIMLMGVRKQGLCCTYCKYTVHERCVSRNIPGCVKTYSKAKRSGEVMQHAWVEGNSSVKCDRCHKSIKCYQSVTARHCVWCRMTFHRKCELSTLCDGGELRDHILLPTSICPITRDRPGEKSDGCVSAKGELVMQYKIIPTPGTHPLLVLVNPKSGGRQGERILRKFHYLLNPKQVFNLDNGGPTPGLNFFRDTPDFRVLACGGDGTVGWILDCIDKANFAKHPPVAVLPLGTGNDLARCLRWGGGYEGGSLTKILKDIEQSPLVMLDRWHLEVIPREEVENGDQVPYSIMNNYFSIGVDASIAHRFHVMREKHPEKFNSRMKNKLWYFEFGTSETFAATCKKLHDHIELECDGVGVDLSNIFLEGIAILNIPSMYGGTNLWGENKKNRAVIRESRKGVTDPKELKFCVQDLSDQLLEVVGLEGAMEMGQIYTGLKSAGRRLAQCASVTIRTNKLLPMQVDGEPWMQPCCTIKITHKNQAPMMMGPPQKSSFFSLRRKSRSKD

What is called IC50 is the midpoint of a concentration-inhibition curve. A higher IC50 goes with lower potency. A word on the AUC(0-t): it is the area under the concentration-time curve up to a stated or last time point. A higher AUC(0-t) goes with more exposure. In general, half-life refers to how long it takes for the measured level to halve. What is called clearance is the rate of elimination divided by the concentration. A higher clearance goes with efficient removal. In general, Cmax refers to the highest concentration seen after dosing. What is called Tmax is the time at which the peak concentration occurs. As usually defined, the bioavailability is the share of a dose that reaches the circulation, judged against a reference dose that is usually intravenous. Low readings indicate little systemic uptake, high ones much systemic uptake. As a reminder, the EC50 is the concentration giving half of the maximal effect. On to `Cn1c(=O)c([N+](=O)[O-])c(N2CCN(C(c3ccc(F)cc3)c3ccc(F)cc3)CC2)c2nc(C#N)ccc21`, for which the figures for the Stability in series [1] and in series [2] were 99% and 90%, respectively. For the same molecule, the IC50 in [3] was 5 nM; in [4], 1000 nM; in series [5], 680 nM; in series [6], 4600 nM; in [7] it was 2 nM; in series [8], 3 nM. In the series on Mus musculus [9], the result was inactive. Also, the Activity result in the series filed under Mus musculus [10] is “Dose-Dependent Effect”. In addition, the values for the AUC(0-t) at 72 h in series [11] and in [17] were 14.8 µM·h and 48 µM·h, respectively. In [12], this molecule had a half-life of 22.5 h. Besides, the clearance in [13] turned out to be 1.9 mL/min/kg. The Vd in [14] came to 3.9 L/kg. Further, in series [15], the Cmax was 1080 nM. In series [16], the Tmax came to 3 h. The bioavailability in [18] worked out at 65%. The EC50 in series [19] came to 280 nM; in series [20], 520 nM; in series [21], 340 nM; in the series on Raji [22], 37 nM; in the series with Raji [23] it was 37 nM; in series [24] it was 65 nM.
As for `Cc1nc2sccn2c(=O)c1CCN1CCC(=C(c2ccc(F)cc2)c2ccc(F)cc2)CC1` [RITANSERIN], the IC50 is more than 5000 nM in [3]; more than 10000 nM in [4]; more than 10000 nM in series [5]; more than 10000 nM in [7]; more than 10000 nM in [8]; 15100 nM in series [25]. For the same molecule, the EC50 in series [20] was more than 20000 nM; in series [24], more than 10000 nM.
